Structures are written as SMILES.

Sequence of NDM-1 (C7C422 whole entry, looked up, species assumed): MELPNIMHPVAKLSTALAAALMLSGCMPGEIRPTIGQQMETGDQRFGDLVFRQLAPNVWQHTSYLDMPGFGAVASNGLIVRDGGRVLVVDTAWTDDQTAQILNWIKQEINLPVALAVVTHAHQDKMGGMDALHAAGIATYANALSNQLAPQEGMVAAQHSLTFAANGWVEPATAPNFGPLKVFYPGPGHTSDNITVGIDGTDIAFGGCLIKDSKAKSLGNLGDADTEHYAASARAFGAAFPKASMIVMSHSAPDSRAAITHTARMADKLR
Sequence of KPC-2 (Q9F663 whole entry, looked up, species assumed): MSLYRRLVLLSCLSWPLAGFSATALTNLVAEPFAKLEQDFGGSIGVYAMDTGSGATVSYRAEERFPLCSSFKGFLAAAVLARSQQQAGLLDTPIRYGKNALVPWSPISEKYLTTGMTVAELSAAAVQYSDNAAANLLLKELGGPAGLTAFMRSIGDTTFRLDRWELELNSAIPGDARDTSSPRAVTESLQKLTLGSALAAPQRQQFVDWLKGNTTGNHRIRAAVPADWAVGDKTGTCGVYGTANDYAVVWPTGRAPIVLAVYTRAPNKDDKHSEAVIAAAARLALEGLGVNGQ

The first test addresses KPC-2 (Klebsiella pneumoniae, UniProt Q9F663). In words: KPC-2 enzyme inhibition (Ki). The test is classed as biochemical.
Conditions: not given
An excerpt:
Several hits were identified from the qDOS38_1 library against the KPC-2 enzyme. All compounds were synthesized without linker C1a. Among the hit compounds, CDD-2312 had the highest enrichment score of 5.9 but a lower count number of 115 compared to other libraries screened at the same time.
The compound `CNC(=O)c1cncc(-c2cnc(NCC(=O)O)nc2)c1` [CDD-2308, (5-(5-(methylcarbamoyl)pyridin-3-yl)pyrimidin-2-yl)glycine] displayed a Ki of 3580 ± 1150 µM. Compound `CNC(=O)c1ccc(-c2cnc(NCC(=O)O)nc2)cc1F` [CDD-2309, (5-(3-fluoro-4-(methylcarbamoyl)phenyl)pyrimidin-2-yl)glycine] yielded a Ki of 980 ± 180 µM. Regarding `CNC(=O)c1cc2cc(-c3cnc(NCC(=O)O)nc3)ccc2nc1C` [CDD-2310, (5-(2-methyl-3-(methylcarbamoyl)quinolin-6-yl)pyrimidin-2-yl)glycine], the Ki was 1240 ± 532 µM. In the case of `COc1cc(-c2cnc(NCC(=O)O)nc2)cc(C=O)c1OCC(=O)O` [CDD-2311, (5-(4-(carboxymethoxy)-3-formyl-5-methoxyphenyl)pyrimidin-2-yl)glycine], the Ki is 522 ± 113 µM.

The target of the next test is OXA-48 (Klebsiella pneumoniae, UniProt Q6XEC0). In words: biochemical. The test is classed as biochemical.
Sequence of OXA-48 (Q6XEC0 whole entry, looked up, species assumed): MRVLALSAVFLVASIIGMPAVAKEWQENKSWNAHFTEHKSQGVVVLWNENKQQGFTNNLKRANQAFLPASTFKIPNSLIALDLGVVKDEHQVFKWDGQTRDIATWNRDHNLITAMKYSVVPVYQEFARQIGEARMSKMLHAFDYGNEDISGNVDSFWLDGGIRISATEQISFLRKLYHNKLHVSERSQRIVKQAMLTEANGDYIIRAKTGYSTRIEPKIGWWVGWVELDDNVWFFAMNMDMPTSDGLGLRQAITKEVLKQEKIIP
Conditions: not given
In the case of `COc1cc(-c2cc(O)cc(C(=O)O)c2)ccc1C(=O)O` [CDD-2724, 5-hydroxy-3′-methoxy-[1,1′-biphenyl]-3,4′-dicarboxylic acid], the affinity corresponds to a Ki of 0.63 ± 0.13 µM.

`CNC(=O)CCc1ccc(CNc2cccc(CCCNCc3ccccc3-c3cccc(C(=O)O)c3)c2)cc1` [CDD-2819, 2′-(((3-(3-((4-(3-(methylamino)-3-oxopropyl)benzyl)amino)phenyl)propyl)amino)methyl)-[1,1′-biphenyl]-3-carboxylic acid]: the affinity corresponds to a Ki of 88 ± 4.4 µM.

Staying with this test, now noted: nitrocefin 30 μM, OXA-48 0.1 nM; read-out: OXA-48 Ki.
Consider `Nc1cccc(CCCNCc2ccccc2-c2cccc(C(=O)O)c2)c1` [CDD-2820, 2′-(((3-(3-aminophenyl)propyl)amino)methyl)-[1,1′-biphenyl]-3-carboxylic acid], for which the Ki was found to be 127 ± 86 µM. For `CN(C)C(=O)C1CCN(c2ccc(CNCc3ccccc3-c3cccc(C(=O)O)c3)cc2C#N)CC1` [CDD-2836, 2′-(((3-cyano-4-(4-(dimethylcarbamoyl)piperidin-1-yl)benzyl)amino)methyl)-[1,1′-biphenyl]-3-carboxylic acid], the inhibition constant (Ki) was determined as 7.6 ± 1 µM.

Staying with this test, now noted: relative to the related analogue named in the sentence.
As for `COc1cc(-c2cc(O)cc(C(=O)O)c2)ccc1C(=O)O` [CDD-2724, 5-hydroxy-3′-methoxy-[1,1′-biphenyl]-3,4′-dicarboxylic acid], the “fold decrease in Ki / enhancement of potency against OXA-48” value is on record as 2 fold.

A further test concerns the target NDM-1 (Klebsiella pneumoniae, UniProt C7C422).
Assay: not given
Conditions: not given
The class given is biochemical.
With `CNC(=O)CCc1ccc(CNCc2cccc(NCc3ccc(-c4ccc(C(=O)O)c(O)c4)o3)c2)cc1` [CDD-2335, 2-hydroxy-4-(5-(((3-(((4-(3-(methylamino)-3-oxopropyl)benzyl)amino)methyl)phenyl)amino)methyl)furan-2-yl)benzoic acid], the “fold reduction of potency against NDM-1” value stood at 4 fold. For the compound `CNCc1ccc(-c2ccc(C(=O)O)c(O)c2)o1` [CDD-2363, 2-hydroxy-4-(5-((methylamino)methyl)furan-2-yl)benzoic acid], the affinity, expressed as Ki, was 397 ± 113 µM and the “NDM-1 Ki (μM)” value is “weak potency”. `CNCc1cccc(NCc2ccc(-c3ccc(C(=O)O)cc3)o2)c1` [CDD-2463, 4-(5-(((3-((methylamino)methyl)phenyl)amino)methyl)furan-2-yl)benzoic acid]: affinity was put at a Ki of 8.5 µM and the “fold reduction of potency against NDM-1” value is on record as 2.5 fold. For `NCc1cccc(NCc2ccc(-c3ccc(C(=O)O)c(O)c3)s2)c1` [CDD-2600, 4-(5-(((3-(aminomethyl)phenyl)amino)methyl)thiophen-2-yl)-2-hydroxybenzoic acid], the affinity corresponds to a Ki of 1.6 ± 0.3 µM and the “fold improvement in potency against NDM-1” value is listed as 2 fold. Turning to `NCc1cccc(NCc2cc(C(=O)O)cc(-c3ccc(C(=O)O)c(O)c3)c2)c1` [CDD-2897, 5-(((3-(aminomethyl)phenyl)amino)methyl)-3′-hydroxy-[1,1′-biphenyl]-3,4′-dicarboxylic acid], the Ki is 71 ± 37 µM and the “fold reduction of potency against NDM-1” value is “more than 10 fold”. With `Cc1cccc(NCc2cccc(-c3ccc(C(=O)O)c(O)c3)c2)c1` [CDD-2907, 3-hydroxy-3′-((m-tolylamino)methyl)-[1,1′-biphenyl]-4-carboxylic acid], the inhibitory constant (Ki) was above 100 µM and the “NDM-1 Ki (μM)” value was “near-complete loss of potency”. With `CC(=O)NCc1cccc(NCc2cccc(-c3ccc(C(=O)O)c(O)c3)c2)c1` [CDD-2919, 3′-(((3-(acetamidomethyl)phenyl)amino)methyl)-3-hydroxy-[1,1′-biphenyl]-4-carboxylic acid], the Ki is above 100 µM and the “NDM-1 Ki (μM)” value is “near-complete loss of potency”.

Compound `NCc1cccc(NC(=O)c2cccc(-c3ccc(C(=O)O)c(O)c3)c2)c1` [CDD-2985, 3′-((3-(aminomethyl)phenyl)carbamoyl)-3-hydroxy-[1,1′-biphenyl]-4-carboxylic acid] showed a Ki of 29 ± 15 µM. In the case of `NCc1cccc(NCc2cncc(-c3ccc(C(=O)O)c(O)c3)c2)c1` [CDD-2998, 4-(5-(((3-(aminomethyl)phenyl)amino)methyl)pyridin-3-yl)-2-hydroxybenzoic acid], the Ki worked out at 1.9 ± 0.6 µM.

Compound `NCc1cccc(N2Cc3ccc(-c4ccc(C(=O)O)c(O)c4)cc3C2)c1` [CDD-3080, 4-(2-(3-(aminomethyl)phenyl)isoindolin-5-yl)-2-hydroxybenzoic acid] registered a Ki of 43 ± 24 µM.

Still in this test, the particulars now being: imipenem 40 μM, NDM-1 2 nM, 10 μM ZnSO4.
`CNC(=O)CCc1ccc(CNCc2cccc(NCc3ccc(-c4ccc(C(=O)O)c(O)c4)o3)c2)cc1` [CDD-2335, 2-hydroxy-4-(5-(((3-(((4-(3-(methylamino)-3-oxopropyl)benzyl)amino)methyl)phenyl)amino)methyl)furan-2-yl)benzoic acid] registered an inhibition constant Ki of 13 ± 1.5 µM.

`CNC(=O)CCc1ccc(CNCc2cccc(NCc3ccc(-c4ccccc4CC(=O)O)cc3)c2)cc1` [CDD-2336, 2-(4′-(((3-(((4-(3-(methylamino)-3-oxopropyl)benzyl)amino)methyl)phenyl)amino)methyl)-[1,1′-biphenyl]-2-yl)acetic acid] had a Ki of 144 ± 16 µM. Turning to `CNC(=O)CCC1CCN(C(=O)c2ccc(CNCc3ccc(O)c(C(=O)O)c3)s2)CC1` [CDD-2371, 2-hydroxy-5-((((5-(4-(3-(methylamino)-3-oxopropyl)piperidine-1-carbonyl)thiophen-2-yl)methyl)amino)methyl)benzoic acid], the affinity, expressed as Ki, was 217 ± 46 µM. Compound `CNC(=O)C1CCC(C(=O)NCc2ccc(NCc3ccc(O)c(C(=O)O)c3)nc2)CC1` (stereo not drawn) [CDD-2395, 2-hydroxy-5-(((5-((4-(methylcarbamoyl)cyclohexane-1-carboxamido)methyl)pyridin-2-yl)amino)methyl)benzoic acid] came in with a Ki of 153 ± 28 µM. Regarding `CNCc1cccc(NCc2ccc(-c3ccc(O)c(C(=O)O)c3)o2)c1` [CDD-2510, 2-hydroxy-5-(5-(((3-((methylamino)methyl)phenyl)amino)methyl)furan-2-yl)benzoic acid], the affinity corresponds to a Ki of 60 ± 10 µM. Still for that read-out and setting: the same measure for `NCc1cccc(NCc2ccc(-c3cccc(C(=O)O)c3O)o2)c1` [CDD-2567, 3-(5-(((3-(aminomethyl)phenyl)amino)methyl)furan-2-yl)-2-hydroxybenzoic acid]: 24 ± 1.5 µM; for `CNCc1cccc(NCc2ccc(-c3cccc(C(=O)O)c3)o2)c1` [CDD-2602, 3-(5-(((3-((methylamino)methyl)phenyl)amino)methyl)furan-2-yl)benzoic acid]: 46 ± 11 µM. In the case of `NCc1cccc(NCc2ccc(-c3ccc(C(=O)O)c(O)c3)cc2)c1` [CDD-2615, 4′-(((3-(aminomethyl)phenyl)amino)methyl)-3-hydroxy-[1,1′-biphenyl]-4-carboxylic acid], the Ki was found to be 14 ± 1.1 µM. In the case of `CNCc1cccc(NCc2cccc(-c3ccc(C(=O)O)c(O)c3)c2)c1` [CDD-2906, 3-hydroxy-3′-(((3-((methylamino)methyl)phenyl)amino)methyl)-[1,1′-biphenyl]-4-carboxylic acid], the Ki was found to be 11 ± 2 µM.

Take `CNC(=O)Cc1cccc(NCc2cccc(-c3ccc(C(=O)O)c(O)c3)c2)c1` [CDD-2920, 3-hydroxy-3′-(((3-(2-(methylamino)-2-oxoethyl)phenyl)amino)methyl)-[1,1′-biphenyl]-4-carboxylic acid]: affinity was put at a Ki of 87 ± 53 µM.

In turn, `NCc1cc(O)cc(NCc2cccc(-c3ccc(C(=O)O)c(O)c3)c2)c1` [CDD-2974, 3′-(((3-(aminomethyl)-5-hydroxyphenyl)amino)methyl)-3-hydroxy-[1,1′-biphenyl]-4-carboxylic acid] returned a Ki of 3.5 ± 1.4 µM.

The compound `NCc1cncc(NCc2cccc(-c3ccc(C(=O)O)c(O)c3)c2)c1` [CDD-2975, 3′-(((5-(aminomethyl)pyridin-3-yl)amino)methyl)-3-hydroxy-[1,1′-biphenyl]-4-carboxylic acid] returned a Ki of 25 ± 14 µM. `NCc1cccc(NCc2cc(-c3ccc(C(=O)O)c(O)c3)ccn2)c1` [CDD-3059, 4-(2-(((3-(aminomethyl)phenyl)amino)methyl)pyridin-4-yl)-2-hydroxybenzoic acid] came in with a Ki of 4.8 ± 0.4 µM. As for `NCc1cccc(NCc2ccnc(-c3ccc(C(=O)O)c(O)c3)c2)c1` [CDD-3060, 4-(4-(((3-(aminomethyl)phenyl)amino)methyl)pyridin-2-yl)-2-hydroxybenzoic acid], the inhibition constant (Ki) came to 8.1 ± 2 µM.

A further test deals with E. coli expressing NDM-1.
Assay: not given
The class given is cell-based. To be noted: comparison of imipenem MIC shifts.
As for `CNCc1cccc(NCc2ccc(-c3cccc(C(=O)O)c3O)o2)c1` [CDD-2522, 2-hydroxy-3-(5-(((3-((methylamino)methyl)phenyl)amino)methyl)furan-2-yl)benzoic acid], the synergy with imipenem result was “reduced synergy compared to CDD-2376 and CDD-2511”. `NCc1cccc(NC(=O)c2cccc(-c3ccc(C(=O)O)c(O)c3)c2)c1` [CDD-2985, 3′-((3-(aminomethyl)phenyl)carbamoyl)-3-hydroxy-[1,1′-biphenyl]-4-carboxylic acid]: the synergy with imipenem entry was “reduced synergy compared to CDD-2376 and CDD-2511”. Consider `NCc1cccc(N2Cc3ccc(-c4ccc(C(=O)O)c(O)c4)cc3C2)c1` [CDD-3080, 4-(2-(3-(aminomethyl)phenyl)isoindolin-5-yl)-2-hydroxybenzoic acid], for which the synergy with imipenem entry was “reduced synergy compared to CDD-2376 and CDD-2511”.

As a reminder, the Ki is a measure of affinity in units of concentration, obtained from inhibition or displacement.

Values taken from patent US20250325542A1, “INHIBITORS OF ANTIMOCROBIAL RESISTANCE AND METHOS USING SAME” (Baylor College of Medicine, priority 2022, published 2025).
